From article PMC11007702 (ACS Omega, 2024)

Experiments:
Format in all cases: biochemical
EGFR^WT = EGFR^WT (Homo sapiens, UniProt P00533); test: in vitro EGFR kinase inhibition assay
VEGFR-2 = VEGFR-2 (Homo sapiens, UniProt P35968); test: in vitro kinase inhibition
EGFR^T790M = EGFR^T790M (Homo sapiens, UniProt P00533, T790M); test: in vitro EGFR kinase inhibition assay
EGFR^T790M, sequence (P00533 669-1210 T790M limits assumed): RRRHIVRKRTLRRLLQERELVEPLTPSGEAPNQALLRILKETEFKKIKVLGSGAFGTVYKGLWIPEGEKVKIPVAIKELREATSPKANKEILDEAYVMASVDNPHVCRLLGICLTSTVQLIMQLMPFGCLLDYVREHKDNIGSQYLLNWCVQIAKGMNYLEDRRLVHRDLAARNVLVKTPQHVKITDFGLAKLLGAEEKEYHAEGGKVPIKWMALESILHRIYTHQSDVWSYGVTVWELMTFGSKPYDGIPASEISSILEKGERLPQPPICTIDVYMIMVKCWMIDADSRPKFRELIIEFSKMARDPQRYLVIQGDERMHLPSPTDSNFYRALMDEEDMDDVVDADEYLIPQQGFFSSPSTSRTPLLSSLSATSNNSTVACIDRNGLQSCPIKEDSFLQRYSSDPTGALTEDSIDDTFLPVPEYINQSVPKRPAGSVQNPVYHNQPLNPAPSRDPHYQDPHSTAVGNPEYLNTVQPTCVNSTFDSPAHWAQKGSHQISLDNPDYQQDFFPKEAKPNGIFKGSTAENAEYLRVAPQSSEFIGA

VEGFR-2, sequence (P35968 20-1356): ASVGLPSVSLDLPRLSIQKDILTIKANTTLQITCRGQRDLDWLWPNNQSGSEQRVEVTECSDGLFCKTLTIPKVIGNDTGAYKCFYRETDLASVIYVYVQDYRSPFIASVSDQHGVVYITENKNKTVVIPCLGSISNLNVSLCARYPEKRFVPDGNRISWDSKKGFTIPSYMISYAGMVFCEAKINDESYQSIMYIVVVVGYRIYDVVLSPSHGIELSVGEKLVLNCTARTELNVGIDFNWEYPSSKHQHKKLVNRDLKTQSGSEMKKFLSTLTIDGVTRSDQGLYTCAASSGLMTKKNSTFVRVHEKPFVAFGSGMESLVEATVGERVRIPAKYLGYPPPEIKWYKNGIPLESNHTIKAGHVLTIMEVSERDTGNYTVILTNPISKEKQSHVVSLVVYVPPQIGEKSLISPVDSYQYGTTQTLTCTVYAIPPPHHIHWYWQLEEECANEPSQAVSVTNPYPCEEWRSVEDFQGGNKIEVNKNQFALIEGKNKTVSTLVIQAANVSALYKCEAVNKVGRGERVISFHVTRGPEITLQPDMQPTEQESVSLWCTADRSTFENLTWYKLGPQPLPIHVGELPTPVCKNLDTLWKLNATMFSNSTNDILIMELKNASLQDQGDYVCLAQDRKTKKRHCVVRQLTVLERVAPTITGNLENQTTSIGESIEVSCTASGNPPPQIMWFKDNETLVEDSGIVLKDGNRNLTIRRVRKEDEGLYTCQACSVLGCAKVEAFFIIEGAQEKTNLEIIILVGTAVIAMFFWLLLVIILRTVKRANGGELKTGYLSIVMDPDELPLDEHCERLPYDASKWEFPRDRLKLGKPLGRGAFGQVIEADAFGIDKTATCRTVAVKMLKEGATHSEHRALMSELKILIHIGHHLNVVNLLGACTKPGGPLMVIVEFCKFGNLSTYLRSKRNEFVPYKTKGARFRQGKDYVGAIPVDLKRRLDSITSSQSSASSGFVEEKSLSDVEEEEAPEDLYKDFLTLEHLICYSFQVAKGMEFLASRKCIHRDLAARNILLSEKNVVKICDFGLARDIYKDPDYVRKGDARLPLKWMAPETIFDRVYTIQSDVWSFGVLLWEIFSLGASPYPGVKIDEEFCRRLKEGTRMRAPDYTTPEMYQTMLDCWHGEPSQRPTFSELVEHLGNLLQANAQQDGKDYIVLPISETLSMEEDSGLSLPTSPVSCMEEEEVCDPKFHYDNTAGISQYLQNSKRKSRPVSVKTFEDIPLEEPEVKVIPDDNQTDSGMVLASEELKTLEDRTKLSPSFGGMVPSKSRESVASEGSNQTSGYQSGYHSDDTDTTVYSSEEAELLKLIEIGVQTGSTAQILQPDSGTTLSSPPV
EGFR^WT, sequence (P00533 25-1210): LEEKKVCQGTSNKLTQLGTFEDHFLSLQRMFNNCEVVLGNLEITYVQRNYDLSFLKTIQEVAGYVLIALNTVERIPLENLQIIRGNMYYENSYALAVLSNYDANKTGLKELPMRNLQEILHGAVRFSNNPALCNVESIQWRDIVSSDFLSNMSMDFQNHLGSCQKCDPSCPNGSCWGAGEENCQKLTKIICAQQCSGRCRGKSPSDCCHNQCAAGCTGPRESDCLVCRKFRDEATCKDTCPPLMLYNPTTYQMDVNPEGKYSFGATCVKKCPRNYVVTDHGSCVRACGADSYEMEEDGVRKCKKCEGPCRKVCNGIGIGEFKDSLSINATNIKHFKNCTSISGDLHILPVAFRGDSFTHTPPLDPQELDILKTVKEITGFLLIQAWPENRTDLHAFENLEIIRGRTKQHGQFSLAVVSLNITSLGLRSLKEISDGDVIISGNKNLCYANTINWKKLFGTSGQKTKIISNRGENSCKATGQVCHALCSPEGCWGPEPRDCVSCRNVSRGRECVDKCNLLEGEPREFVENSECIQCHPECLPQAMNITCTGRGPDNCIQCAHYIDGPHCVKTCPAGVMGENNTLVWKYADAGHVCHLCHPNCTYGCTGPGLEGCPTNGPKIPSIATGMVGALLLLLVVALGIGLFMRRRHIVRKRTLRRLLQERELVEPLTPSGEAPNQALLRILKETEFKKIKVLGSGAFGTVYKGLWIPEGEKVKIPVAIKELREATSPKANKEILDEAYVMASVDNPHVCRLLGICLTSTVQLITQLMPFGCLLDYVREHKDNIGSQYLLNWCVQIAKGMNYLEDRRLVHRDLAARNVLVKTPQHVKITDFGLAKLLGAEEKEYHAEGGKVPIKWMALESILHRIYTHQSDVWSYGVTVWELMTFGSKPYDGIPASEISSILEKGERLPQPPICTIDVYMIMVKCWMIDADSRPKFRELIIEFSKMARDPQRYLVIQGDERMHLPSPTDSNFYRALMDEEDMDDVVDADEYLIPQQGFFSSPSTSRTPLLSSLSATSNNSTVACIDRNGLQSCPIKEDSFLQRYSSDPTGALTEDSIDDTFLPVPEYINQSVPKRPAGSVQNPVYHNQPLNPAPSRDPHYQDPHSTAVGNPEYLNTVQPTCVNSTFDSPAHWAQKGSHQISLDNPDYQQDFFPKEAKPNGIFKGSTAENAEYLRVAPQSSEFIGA

IC50 (EGFR^WT): 86 nM | IC50 (VEGFR-2): 2070 nM | IC50 (EGFR^T790M): 562 nM
SMILES: Cc1ccc(NC(=O)Cn2c(=O)c3c(ncn3C)n(C)c2=O)cc1 [T-1-PMPA, 2-(3,7-Dimethyl-2,6-dioxo-2,3,6,7-tetrahydro-1H-purin-1-yl)-N-(p-tolyl)acetamide]
